# In patent US20100092574A1, “SYNERGISTIC PEROXIDE BASED BIOCIDAL COMPOSITIONS” (priority 2008, published 2010):
# Key:
# [1] = Stability of active halogen species in the presence of residual H2O2; type: physicochemical
# Procedure: The stability of nitrogen-bound active halogen species in the presence of residual H2O2 was investigated. Free and total chlorine concentrations were measured by standard DPD methodology and the total H2O2 concentration by acidic […] titration. The concentration of MCDMH is the concentration of the total active halogen less the concentration of free active halogen. The concentration of H2O2 is the total oxidant concentration less the MCDMH concentration. […] The indicated reaction is shown in Equation 6.
# The effect of the addition of a molar equivalent of 5,5-dimethylhydantoin (DMH) to NaOCl solutions prior to combination with hydrogen peroxide was investigated. The concentration of MCDMH is the concentration of the total active halogen less the concentration of free active halogen. The concentration of H2O2 is the total oxidant concentration less the MCDMH concentration.
# [2] = Residual sulfite and hydrogen peroxide content after mixing (co-stability); type: physicochemical
# Procedure: Aqueous solutions containing sodium sulfite and hydrogen peroxide were mixed at 21° C. to obtain a solution having a sulfite content (as SO3^2−) of 40 ppm, a hydrogen peroxide content of 20.0 ppm and a pH of 6.7. The temperature of the solution was maintained at 21° C. and the residual sulfite and peroxide content was determined at 15, 30 and 60 minutes after mixing. The procedure consisted of adding a known amount of 1-chloro-5,5-dimethylhydantoin (MCDMH) to the samples in excess of the estimated residual sulfite content. The remaining MCDMH concentration was then measured by standard DPD total halogen methodologies. As sulfite rapidly neutralizes MCDMH at all pHs the sulfite concentration is the concentration of MCDMH added less the concentration of MCDMH measured, see Equation 1 below.
# [Sulfite]=[MCDMHadded]−[MCDMHmeasured] (1)
# The H2O2 concentration was determined by recording the concentration of H2O2 measured using acidic thiosulfate titration with KI indicator (HACH HYP-1 hydrogen peroxide test kit—Hach Co., Loveland, Colo.). Since this titration is run at acidic pH, this method yields the concentration of H2O2 in excess of the sulfite concentration contained in the sample. As the sulfite concentration is known from the MCMDH analysis and Equation 1, the H2O2 concentration can be calculated using the following Equation 2:
# [H2O2]=[H2O2 measured]+[Sulfitecalculated] (2)
# The estimated error in the methodology is ±1 ppm
# The procedure of Example 1 was repeated with the difference that the pH of the mixed solution was 9.0 and the residual concentrations were determined 5, 15, 30, 60, 120 and 1080 minutes after mixing.
# [3] = tested on: microbial population of sulfite bleached pulp slurry (total aerobic counts); test: Biocidal performance in sulfite bleached pulp slurry, total aerobic counts (tryptone soy agar plating); type: cell-based; conditions: for amount alone required to achieve 1 g cfu/mL reduction of 4.2: single agent; for 3 h Reduction: 3 h contact; for 24 h Reduction: 24 h contact
# Excerpt: (§1) The expression “1 g cfu/mL” denotes the common (decadic) logarithm of the number of colony-forming units per milliliter or, in connection with the term “reduction”, the common logarithm of the quotient of the number of colony-forming units per milliliter before treatment and the number of colony-forming units after treatment. Unless otherwise indicated all concentrations in percent or ppm are expressed on a weight basis.
# Synergistic biocidal performance upon co-application of sulfite with hydrogen peroxide at elevated pH was investigated. The sulfite and peroxide concentrations indicated in Table 3 below were added to an aqueous solution made from: (a) deionized water, (b) NaHCO3 to achieve a carbonate buffer concentration of 200 ppm (as CaCO3 total alkalinity), (c) sulfite bleached pulp slurry to achieve a final consistency of 0.05%, carrying an associated minimal concentration of residual sulfite of 6 ppm, and (d) NaOH to achieve a pH of 9.0.
# The microbial population was that provided by preparing the pulp slurry 24-48 h prior to testing and storing at room temperature, thus allowing microbial growth to a high test level. […] Populations reported are total aerobic counts using tryptone soy agar plating.
# SI=(level of A)/(efficacious level of A)+(level of B)/(efficacious level of B) (3)
# Synergy upon co-application of sulfite with hydrogen peroxide at higher concentrations of sulfite and hydrogen peroxide was investigated. The conditions were the same as in Example 3.
# Pseudomonas aeruginosa = test: Bactericidal efficacy of sulfite and hydrogen peroxide solutions in the absence of pulp; type: cell-based; conditions: for reduction: 50 ppm hydrogen peroxide, 3 h; for 3 h Reduction: pH 7.0, 3 h at 37° C.
# Excerpt: as §1
# The bactericidal efficacy of solutions containing sulfite and hydrogen peroxide was further investigated in the absence of pulp. Efficacy was measured against Pseudomonas aeruginosa grown in nutrient in the presence of 83 and 830 ppm sulfite. The sulfite-containing P. aeruginosa inoculum was then diluted 1:99 with Butterfield's buffer at pH 7.0. The sulfite concentrations in Table 5 below are the those in the final dilution. The dilutions were then contacted with 50 ppm hydrogen peroxide for 3 h at 37° C.
# [4] = 2.1 ppm H2O2 + 1.0 ppm DMH stabilized NaOCl, 1 min
# [5] = 2.1 ppm H2O2 + 1.0 ppm DMH stabilized NaOCl, 5 min
# [6] = 2.1 ppm H2O2 + 1.0 ppm DMH stabilized NaOCl, 15 min
# [7] = 2.1 ppm H2O2 + 1.0 ppm DMH stabilized NaOCl, 60 min
# [8] = 2.1 ppm H2O2 + 1.0 ppm NaOCl (as Cl2), 1 min
# [9] = 2.1 ppm H2O2 + 1.0 ppm NaOCl (as Cl2), 5 min
# [10] = 2.1 ppm H2O2 + 1.0 ppm NaOCl (as Cl2), 15 min
# [11] = combination of 2.1 ppm H2O2 with 1 ppm NaOCl (as Cl2), immediate
# [12] = pH 6.7, 21° C., start 40 ppm sulfite + 20.0 ppm H2O2, 15 min
# [13] = pH 6.7, 21° C., start 40 ppm sulfite + 20.0 ppm H2O2, 30 min
# [14] = pH 6.7, 21° C., start 40 ppm sulfite + 20.0 ppm H2O2, 60 min
# [15] = pH 9.0, start 40 ppm sulfite + 20.0 ppm H2O2, 5 min
# [16] = pH 9.0, start 40 ppm sulfite + 20.0 ppm H2O2, 15 min
# [17] = pH 9.0, start 40 ppm sulfite + 20.0 ppm H2O2, 30 min
# [18] = pH 9.0, start 40 ppm sulfite + 20.0 ppm H2O2, 60 min
# [19] = pH 9.0, start 40 ppm sulfite + 20.0 ppm H2O2, 120 min
# [20] = pH 9.0, start 40 ppm sulfite + 20.0 ppm H2O2, 1080 min
# [21] = Example 3, hydrogen peroxide alone (40-160 ppm per Table 3)
# [22] = Example 4, hydrogen peroxide alone at 120-160 ppm
# [23] = Table 3 Test No. 4: sulfite 0 ppm, peroxide 40 ppm, pH 9.0
# [24] = Table 3 Test No. 5: sulfite 0 ppm, peroxide 160 ppm, pH 9.0
# [25] = Table 4 Test No. 4: sulfite 0 ppm, peroxide 120 ppm
# [26] = Table 4 Test No. 5: sulfite 0 ppm, peroxide 150 ppm
# [27] = Table 4 Test No. 6: sulfite 0 ppm, peroxide 160 ppm
# [28] = Table 3 Test No. 2: sulfite 32 ppm, peroxide 0 ppm, pH 9.0
# [29] = Table 3 Test No. 3: sulfite 128 ppm, peroxide 0 ppm, pH 9.0
# [30] = Table 4 Test No. 2: sulfite 128 ppm, peroxide 0 ppm
# [31] = Table 4 Test No. 3: sulfite 512 ppm, peroxide 0 ppm
compound,measurement,setting,value
"CC1(C)C(=O)NC(=O)N1Cl [DMH stabilized NaOCl, 1-chloro-5,5-dimethylhydantoin]",Free active halogen DPD (as Cl2),[1]; [4],0.0 ppm
same,Indicated Species DMH stabilized NaOCl (as Cl2),[1]; [4],0.9 ppm
same,Total active halogen DPD (as Cl2),[1]; [4],0.9 ppm
same,Free active halogen DPD (as Cl2),[1]; [5],0.0 ppm
same,Indicated Species DMH stabilized NaOCl (as Cl2),[1]; [5],1.0 ppm
same,Total active halogen DPD (as Cl2),[1]; [5],1.0 ppm
same,Free active halogen DPD (as Cl2),[1]; [6],0.0 ppm
same,Indicated Species DMH stabilized NaOCl (as Cl2),[1]; [6],0.9 ppm
same,Total active halogen DPD (as Cl2),[1]; [6],0.9 ppm
same,Free active halogen DPD (as Cl2),[1]; [7],0.0 ppm
same,Indicated Species DMH stabilized NaOCl (as Cl2),[1]; [7],0.9 ppm
same,Total active halogen DPD (as Cl2),[1]; [7],0.9 ppm
[Na+].[O-]Cl [NaOCl],Free active halogen DPD (as Cl2),[1]; [8],0.0 ppm
same,Indicated Species NaOCl (as Cl2),[1]; [8],0.0 ppm
same,Total active halogen DPD (as Cl2),[1]; [8],0.0 ppm
same,Indicated Species NaOCl (as Cl2),[1]; [9],0.0 ppm
same,Indicated Species NaOCl (as Cl2),[1]; [10],0.0 ppm
same,free chlorine after combination,[1]; [11],no detectable free chlorine
OO [hydrogen peroxide],H2O2,[2]; [12],6.1 ppm
same,H2O2,[2]; [13],5.1 ppm
same,H2O2,[2]; [14],2.4 ppm
same,H2O2,[2]; [15],16.9 ppm
same,H2O2,[2]; [16],14.8 ppm
same,H2O2,[2]; [17],14.7 ppm
same,H2O2,[2]; [18],15.2 ppm
same,H2O2,[2]; [19],13.2 ppm
same,H2O2,[2]; [20],8.1 ppm
same,reduction in 3 h,[3]; [21],1.2-3.5 1 g cfu/mL
same,reduction in 24 h,[3]; [21],5.5 1 g cfu/mL
same,reduction in 3 h,[3]; [22],3.3-4.0 1 g cfu/mL
same,reduction in 24 h,[3]; [22],3.7-5.5 1 g cfu/mL
same,amount alone required to achieve 1 g cfu/mL reduction of 4.2,[3]; Example 4,≥ 150 ppm
same,3 h Reduction,[3]; [23],1.2 lg cfu/mL
same,24 h Reduction,[3]; [23],5.5 lg cfu/mL
same,3 h Reduction,[3]; [24],3.5 lg cfu/mL
same,24 h Reduction,[3]; [24],5.5 lg cfu/mL
same,3 h Reduction,[3]; [25],4.0 lg cfu/mL
same,24 h Reduction,[3]; [25],4.5 lg cfu/mL
same,3 h Reduction,[3]; [26],4.2 lg cfu/mL
same,24 h Reduction,[3]; [26],3.7 lg cfu/mL
same,3 h Reduction,[3]; [27],3.3 lg cfu/mL
same,24 h Reduction,[3]; [27],5.0 lg cfu/mL
same,reduction,Pseudomonas aeruginosa; P. aeruginosa grown up in 830 ppm sulfite diluted to 8.3 ppm during application,1.5 1 g cfu/mL
same,reduction,Pseudomonas aeruginosa; P. aeruginosa grown up in the absence of sulfite,0.9 1 g cfu/mL
same,3 h Reduction,"Pseudomonas aeruginosa; Table 5 Test No. 4: sulfite 0 ppm, peroxide 50 ppm",0.9 lg cfu/mL
same,Indicated Species H2O2,[1]; [4],2.1 ppm
same,Indicated Species H2O2,[1]; [5],1.9 ppm
same,Indicated Species H2O2,[1]; [7],2.3 ppm
same,Indicated Species H2O2,[1]; [8],1.8 ppm
same,Indicated Species H2O2,[1]; [9],1.8 ppm
same,Indicated Species H2O2,[1]; [10],1.4 ppm
same,H2O2 residue,[1]; [11],~1.6 ppm
"O=S([O-])[O-].[Na+].[Na+] [Sulfite, sodium sulfite]",Sulfite (as H2O2),[2]; [12],3.1 ppm
same,Sulfite (as SO3^2−),"[2]; pH 6.7, 21° C., start 40 ppm sulfite + 20.0 ppm H2O2, 15 min after mixing",7.2 ppm
same,Sulfite (as H2O2),[2]; [13],2.3 ppm
same,Sulfite (as SO3^2−),"[2]; pH 6.7, 21° C., start 40 ppm sulfite + 20.0 ppm H2O2, 30 min after mixing",5.4 ppm
same,Sulfite (as H2O2),[2]; [14],0.0 ppm
same,Sulfite (as SO3^2−),"[2]; pH 6.7, 21° C., start 40 ppm sulfite + 20.0 ppm H2O2, 60 min after mixing",0.0 ppm
same,Sulfite (as H2O2),[2]; [15],7.9 ppm
same,Sulfite (as SO3^2−),[2]; [15],18.7 ppm
same,Sulfite (as H2O2),[2]; [16],6.8 ppm
same,Sulfite (as SO3^2−),[2]; [16],16.0 ppm
same,Sulfite (as H2O2),[2]; [17],6.7 ppm
same,Sulfite (as SO3^2−),[2]; [17],15.7 ppm
same,Sulfite (as H2O2),[2]; [18],6.2 ppm
same,Sulfite (as SO3^2−),[2]; [18],14.6 ppm
same,Sulfite (as H2O2),[2]; [19],5.2 ppm
same,Sulfite (as SO3^2−),[2]; [19],12.3 ppm
same,Sulfite (as H2O2),[2]; [20],0.1 ppm
same,Sulfite (as SO3^2−),[2]; [20],0.3 ppm
same,effect on bacterial populations,"[3]; Example 3, sulfite alone at 32-128 ppm",no significant effect
same,amount alone required to achieve 1 g cfu/mL reduction of 4.2,[3]; Example 4,> 512 ppm
same,effect on the microbial populations,"[3]; Example 4, sulfite at 128-512 ppm",no significant effect
same,3 h Reduction,[3]; [28],−0.40 lg cfu/mL
same,24 h Reduction,[3]; [28],0.11 lg cfu/mL
same,3 h Reduction,[3]; [29],−0.50 lg cfu/mL
same,24 h Reduction,[3]; [29],−0.45 lg cfu/mL
same,3 h Reduction,[3]; [30],0.32 lg cfu/mL
same,24 h Reduction,[3]; [30],0.11 lg cfu/mL
same,3 h Reduction,[3]; [31],0.08 lg cfu/mL
same,24 h Reduction,[3]; [31],−0.45 lg cfu/mL
same,3 h Reduction,"Pseudomonas aeruginosa; Table 5 Test No. 2: sulfite 8.3 ppm, peroxide 0 ppm",0.1 lg cfu/mL
same,3 h Reduction,"Pseudomonas aeruginosa; Table 5 Test No. 3: sulfite 0.83 ppm, peroxide 0 ppm",0.0 lg cfu/mL
